Key:
[1] = tested on: Intestine; assay: Biodistribution in BALB/c mouse intestine at 7 to 8 KBq, iv after 60 mins; assay type: ADME, organism-based; conditions: in vivo, 1 h
[2] = tested on: Mus musculus; assay: Biodistribution in BALB/c mouse lower body at 7 to 8 KBq, iv after 15 mins; assay type: ADME, organism-based; conditions: in vivo, 0.25 h
[3] = tested on: Brain; assay: Biodistribution in BALB/c mouse brain at 7 to 8 KBq, iv after 15 mins; assay type: ADME, organism-based; conditions: in vivo, 0.25 h
[4] = tested on: Medulla; assay: Biodistribution in BALB/c mouse medulla at 7 to 8 KBq, iv after 120 mins; assay type: ADME, organism-based, Medulla of organ; conditions: in vivo, 2 h
[5] = tested on: Thyroid gland; assay: Biodistribution in BALB/c mouse thyroid at 7 to 8 KBq, iv after 15 mins; assay type: ADME, organism-based; conditions: in vivo, 0.25 h
[6] = tested on: Mus musculus; assay: Biodistribution in BALB/c mouse upper body at 7 to 8 KBq, iv after 60 mins; assay type: ADME, organism-based; conditions: in vivo, 1 h
[7] = tested on: Cerebellum; assay: Biodistribution in BALB/c mouse cerebellum at 7 to 8 KBq, iv after 5 mins; assay type: ADME, organism-based; conditions: in vivo
[8] = tested on: Striatum; assay: Biodistribution in BALB/c mouse striatum at 7 to 8 KBq, iv after 15 mins; assay type: ADME, organism-based; conditions: in vivo, 0.25 h
[9] = tested on: Mus musculus; assay: Biodistribution in BALB/c mouse lower body at 7 to 8 KBq, iv after 5 mins; assay type: ADME, organism-based; conditions: in vivo
[10] = tested on: Brain; assay: Biodistribution in BALB/c mouse brain at 7 to 8 KBq, iv after 120 mins; assay type: ADME, organism-based; conditions: in vivo, 2 h
[11] = tested on: Blood; assay: Biodistribution in BALB/c mouse blood at 7 to 8 KBq, iv after 120 mins; assay type: ADME, organism-based; conditions: in vivo, 2 h
[12] = tested on: Striatum; assay: Biodistribution in BALB/c mouse striatum at 7 to 8 KBq, iv after 60 mins; assay type: ADME, organism-based; conditions: in vivo, 1 h
[13] = tested on: Mus musculus; assay: Biodistribution in BALB/c mouse upper body at 7 to 8 KBq, iv after 15 mins; assay type: ADME, organism-based; conditions: in vivo, 0.25 h
[14] = tested on: Hippocampus; assay: Biodistribution in BALB/c mouse hippocampus at 7 to 8 KBq, iv after 60 mins; assay type: ADME, organism-based; conditions: in vivo, 1 h
[15] = tested on: Cortex; assay: Biodistribution in BALB/c mouse cortex at 7 to 8 KBq, iv after 15 mins; assay type: ADME, organism-based; conditions: in vivo, 0.25 h
[16] = tested on: Heart; assay: Biodistribution in BALB/c mouse heart at 7 to 8 KBq, iv after 120 mins; assay type: ADME, organism-based; conditions: in vivo, 2 h
[17] = tested on: Brain; assay: Biodistribution in BALB/c mouse brain at 7 to 8 KBq, iv after 60 mins; assay type: ADME, organism-based; conditions: in vivo, 1 h
[18] = tested on: Hippocampus; assay: Biodistribution in BALB/c mouse hippocampus at 7 to 8 KBq, iv after 5 mins; assay type: ADME, organism-based; conditions: in vivo
[19] = tested on: Thalamus; assay: Biodistribution in BALB/c mouse thalamus at 7 to 8 KBq, iv after 120 mins; assay type: ADME, organism-based; conditions: in vivo, 2 h
[20] = tested on: Lung; assay: Biodistribution in BALB/c mouse lung at 7 to 8 KBq, iv after 120 mins; assay type: ADME, organism-based; conditions: in vivo, 2 h
[21] = tested on: Thalamus; assay: Biodistribution in BALB/c mouse thalamus at 7 to 8 KBq, iv after 60 mins; assay type: ADME, organism-based; conditions: in vivo, 1 h
[22] = tested on: Pancreas; assay: Biodistribution in BALB/c mouse pancreas at 7 to 8 KBq, iv after 60 mins; assay type: ADME, organism-based; conditions: in vivo, 1 h
[23] = tested on: Cerebellum; assay: Biodistribution in BALB/c mouse cerebellum at 7 to 8 KBq, iv after 60 mins; assay type: ADME, organism-based; conditions: in vivo, 1 h
[24] = tested on: Spleen; assay: Biodistribution in BALB/c mouse spleen at 7 to 8 KBq, iv after 60 mins; assay type: ADME, organism-based; conditions: in vivo, 1 h
[25] = tested on: Mus musculus; assay: Biodistribution in BALB/c mouse lower body at 7 to 8 KBq, iv after 60 mins; assay type: ADME, organism-based; conditions: in vivo, 1 h
[26] = tested on: Blood; assay: Biodistribution in BALB/c mouse blood at 7 to 8 KBq, iv after 15 mins; assay type: ADME, organism-based; conditions: in vivo, 0.25 h
[27] = tested on: Spleen; assay: Biodistribution in BALB/c mouse spleen at 7 to 8 KBq, iv after 5 mins; assay type: ADME, organism-based; conditions: in vivo
[28] = tested on: Pancreas; assay: Biodistribution in BALB/c mouse pancreas at 7 to 8 KBq, iv after 5 mins; assay type: ADME, organism-based; conditions: in vivo
[29] = tested on: Spleen; assay: Biodistribution in BALB/c mouse spleen at 7 to 8 KBq, iv after 15 mins; assay type: ADME, organism-based; conditions: in vivo, 0.25 h
[30] = tested on: Intestine; assay: Biodistribution in BALB/c mouse intestine at 7 to 8 KBq, iv after 15 mins; assay type: ADME, organism-based; conditions: in vivo, 0.25 h
[31] = tested on: Thyroid gland; assay: Biodistribution in BALB/c mouse thyroid at 7 to 8 KBq, iv after 120 mins; assay type: ADME, organism-based; conditions: in vivo, 2 h
[32] = tested on: Stomach; assay: Biodistribution in BALB/c mouse stomach at 7 to 8 KBq, iv after 15 mins; assay type: ADME, organism-based; conditions: in vivo, 0.25 h
[33] = tested on: Kidney; assay: Biodistribution in BALB/c mouse kidney at 7 to 8 KBq, iv after 60 mins; assay type: ADME, organism-based; conditions: in vivo, 1 h
[34] = tested on: Cortex; assay: Biodistribution in BALB/c mouse cortex at 7 to 8 KBq, iv after 120 mins; assay type: ADME, organism-based; conditions: in vivo, 2 h
[35] = tested on: Cortex; assay: Biodistribution in BALB/c mouse cortex at 7 to 8 KBq, iv after 5 mins; assay type: ADME, organism-based; conditions: in vivo
[36] = tested on: Thalamus; assay: Biodistribution in BALB/c mouse thalamus at 7 to 8 KBq, iv after 5 mins; assay type: ADME, organism-based; conditions: in vivo
[37] = tested on: Liver; assay: Biodistribution in BALB/c mouse liver at 7 to 8 KBq, iv after 120 mins; assay type: ADME, organism-based; conditions: in vivo, 2 h
[38] = tested on: Stomach; assay: Biodistribution in BALB/c mouse stomach at 7 to 8 KBq, iv after 5 mins; assay type: ADME, organism-based; conditions: in vivo

Drug uptake [1]: 35.19 %ID | Drug uptake [2]: 15.02 %ID | Drug uptake [3]: 2.79 %ID | Drug uptake [4]: 0.16 %ID | Drug uptake [5]: 0.13 %ID | Drug uptake [6]: 11.54 %ID | Drug uptake [7]: 6.16 %ID | Drug uptake [8]: 6.76 %ID | Drug uptake [9]: 18.94 %ID | Drug uptake [10]: 0.1 %ID | Drug uptake [11]: 1.77 %ID | Drug uptake [12]: 2.11 %ID | Drug uptake [13]: 17.41 %ID | Drug uptake [14]: 2.52 %ID | Drug uptake [15]: 6.65 %ID | Drug uptake [16]: 0.05 %ID | Drug uptake [17]: 0.8 %ID | Drug uptake [18]: 7.07 %ID | Drug uptake [19]: 0.2 %ID | Drug uptake [20]: 0.17 %ID | Drug uptake [21]: 1.56 %ID | Drug uptake [22]: 0.34 %ID | Drug uptake [23]: 0.94 %ID | Drug uptake [24]: 0.13 %ID | Drug uptake [25]: 10.24 %ID | Drug uptake [26]: 3.31 %ID | Drug uptake [27]: 0.37 %ID | Drug uptake [28]: 1.41 %ID | Drug uptake [29]: 0.31 %ID | Drug uptake [30]: 17.73 %ID | Drug uptake [31]: 1.3 %ID | Drug uptake [32]: 3.56 %ID | Drug uptake [33]: 2.15 %ID | Drug uptake [34]: 0.22 %ID | Drug uptake [35]: 7.22 %ID | Drug uptake [36]: 7.82 %ID | Drug uptake [37]: 9.8 %ID | Drug uptake [38]: 1.77 %ID
Structure (SMILES): CN1CCN(C2=Nc3cc([125I])ccc3Nc3ccccc32)CC1 [[125I]I-OZAPINE]
